Assay in all cases: NCI tumour cell line growth inhibition, 48 h
Assay [1] concerns SR leukemia.
Assay [2] has as its system EKVX NSCLC.
The subject of assay [3] is KM12 colon.
The subject of assay [4] is HCT-116 colon.
The test system of assay [5] is UACC-62 melanoma.
For assay [6], the system named is UO-31 renal.
In assay [7] the test system is MOLT-4 leukemia.
For assay [8], the system named is SF-539 CNS.
For assay [9], the system named is LOX IMVI melanoma.
Assay [10] relates to A498 renal.

Molecules are shown by their SMILES.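 A five-concentration, 48-hour dose response in 96-well plates underlies each endpoint, interpolated linearly between surrounding concentrations. GI50 is the concentration that inhibits growth by half. The concentration for full growth arrest is given as TGI.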

Regarding `Nc1ccccc1NC(=O)c1ccc(CNc2nccc(-c3cccnc3)n2)cc1`, the GI50 in assay [1] is 0.268 µM; in [2], 1.36 µM; in assay [3], 0.886 µM; in assay [4], 0.362 µM; in [5], 0.476 µM; in assay [6], 0.978 µM. Further, the values for the GI50 in assay [7] and in assay [8] were 0.643 µM and 0.805 µM, respectively. In addition, the TGI is more than 59.1 µM in assay [2]; 14.1 µM in assay [3]; more than 100 µM in assay [4]; 2.17 µM in assay [5]; more than 77.2 µM in assay [6]; more than 23.2 µM in assay [7]. Also, in [8], the TGI is 13.1 µM.
Turning to `Cc1cc([N+](=O)[O-])ccc1NC(=O)C(=O)C(C(=O)c1ccccc1-c1ccccc1)C1OC(=O)c2ccccc21` (stereo not given), the TGI in [1] turned out to be 54.7 µM; in assay [3] it was 32.5 µM; in [4], 29.9 µM; in assay [5], 13.5 µM; in assay [6], 31.3 µM; in [7] it was 72.2 µM. Further, the TGI in [8] is 21.7 µM.
For the molecule `COc1c(C)cc(O)cc1C=O`, the TGI in [2], in [9], in assay [3], in assay [5], in [6] and in assay [7] was more than 100 µM each time. In addition, in [8], the TGI is more than 100 µM.
`NCCCNc1nc2ccccc2c2c(=O)c3cc(F)cc(F)c3sc12`: the GI50 in [2] is 1.6 µM; in [3] it was 1.74 µM; in assay [4], 1.67 µM; in assay [5], 1.81 µM; in assay [6], 1.48 µM; in assay [10], 1.38 µM. In addition, the GI50 in [8] is 1.77 µM. Besides, the TGI in assay [2] was 3.12 µM; in assay [3], 3.26 µM; in assay [4] it was 3.28 µM; in assay [5] it was 3.48 µM; in assay [6] it was 2.88 µM; in assay [10], 2.93 µM. For the same molecule, the TGI in assay [8] came to 3.24 µM.
On to `C#CCNC(=O)N(CC#C)N=O`, for which the TGI in [2], in [9], in assay [3], in [4], in assay [5] and in assay [6] was more than 100 µM in each case. Also, the TGI in [7], in assay [10] and in assay [8] was more than 100 µM throughout.
For `c1ccc([CH2][Sn]([CH2]c2ccccc2)([O]c2cccc3cccnc23)[O]c2cccc3cccnc23)cc1`, the GI50 in [2] is 0.741 µM; in assay [9], 0.53 µM; in [3], 0.223 µM; in [4], 0.211 µM; in assay [5] it was 0.178 µM; in assay [6], 0.363 µM. Besides, the GI50 was 0.429 µM in assay [10] and 0.248 µM in [8]. Besides, the TGI is 1.99 µM in assay [2]; 1.65 µM in assay [9]; 0.515 µM in [3]; 1.19 µM in [4]; 0.447 µM in assay [5]; 1.39 µM in assay [6]. In addition, the TGI in [10] came out at 0.692 µM; in [8], 0.677 µM.
As for `COc1cc(/C=C2\C[C@H]3[C@@H]4CC=C5C[C@@H](O)CC[C@]5(C)[C@H]4CC[C@]3(C)[C@H]2O)ccc1OCCN1CCCC1`, the GI50 in assay [2] is 0.104 µM; in assay [9] it was 17.9 µM; in assay [3], 9.69 µM; in [4], 8.27 µM; in [5] it was 8.9 µM; in assay [6] it was 10.3 µM. Also, the GI50 was 2.46 µM in assay [7], 25.1 µM in [10] and 8.28 µM in assay [8]. For the same molecule, the TGI in [2] was 7.38 µM; in assay [9], more than 50 µM; in [3], 19.8 µM; in [4], 24.8 µM; in assay [5], 16.9 µM; in [6], 22.4 µM. In addition, the results for the TGI in [7], in assay [10] and in assay [8] were 11.3 µM, more than 50 µM and 17.6 µM, respectively.
As to `CC[C@H]1CN2CCc3cc(OC)c(OC)cc3C2C[C@@H]1CC1NCCc2cc(OC)c(OC)cc21` (stereo not given in full), the TGI was 0.136 µM in assay [2]; 0.0224 µM in [9]; 0.0986 µM in [3]; 0.0491 µM in assay [4]; 0.316 µM in [5]; 3.75 µM in assay [7]. The TGI in assay [10] was determined as 0.313 µM.
On to `CN(C)c1ccc(/C=C/C(=O)[O-])cc1.CN(C)c1ccc(/C=C/C(=O)[O-])cc1.[Cu+2]`, for which the TGI in assay [2] was more than 100 µM; in assay [9], more than 70.8 µM; in assay [3], more than 100 µM; in assay [4], more than 100 µM; in assay [5], more than 62.9 µM; in [6], more than 100 µM. Further, the TGI in [7] is more than 100 µM; in [10], more than 86.4 µM; in assay [8], more than 100 µM.
For the molecule `COc1ccccc1NC(=O)C1=C(C)NC(C)=C(C(=O)Nc2ccccc2OC)C1C1=CC=COC1`, the TGI in assay [2] was more than 100 µM; in assay [3] it was 49.6 µM; in assay [4], 17.2 µM; in assay [5], 15.5 µM; in assay [6], more than 100 µM; in assay [7], more than 100 µM. In addition, the TGI in [10] came to 45.4 µM; in assay [8], 30.7 µM.
`O=C1CC(c2c(-c3ccccc3)[nH]c3ccccc23)C(=O)N1` (stereo not given): the TGI in assay [2], in assay [3], in assay [4], in assay [5], in assay [6] and in assay [7] was more than 100 µM throughout. In addition, the TGI in assay [10] and in assay [8] was more than 100 µM in each case.
Turning to `COC1OC(CO)C(O)C(OC(C)=O)C1NC(=O)N(CCCl)N=O` (stereo not given), the TGI in assay [2], in assay [9], in assay [3], in assay [4], in [5] and in assay [7] was more than 100 µM each time. The TGI in [10] and in assay [8] was more than 100 µM in each case.
On to `O=C1c2[nH]cc(CNC3CN4CCC3CC4)c2C(=O)c2c1c(O)c1ccccc1c2O` (stereo not given), for which the GI50 in assay [2] is 16.1 µM; in [9], 1.05 µM; in assay [3] it was 0.672 µM; in assay [4], 0.37 µM; in assay [5], 14.9 µM; in [6] it was 3.66 µM. In addition, the GI50 in assay [8] is 1.94 µM. Besides, the TGI in [2] turned out to be 33.1 µM; in assay [9], 2.31 µM; in assay [3], 2.32 µM; in assay [4], 2.65 µM; in [5] it was 37.6 µM; in assay [6], 21.4 µM. The TGI in [7] came out at 1.72 µM; in assay [10], 1.72 µM; in [8] it was 3.61 µM.
For the molecule `CC[C@@H]1[C@@H](C)O[C@@](O)([C@@H](C)[C@H](O)[C@H](C)[C@H]2OC(=O)/C=C/C=C/[C@H](C)[C@@H]([C@@H](C)[C@@H](O)[C@H](C)[C@@]3(O)C[C@@H](O[C@H]4C[C@@H](O)[C@H](O)C(C)O4)[C@H](CC)[C@@H](C)O3)OC(=O)/C=C/C=C/[C@@H]2C)C[C@H]1O[C@@H]1C[C@@H](O)[C@H](O)C(C)O1` (stereo not given in full), the GI50 was 0.11 µM in assay [2]; 0.0611 µM in assay [9]; 0.125 µM in assay [3]; 0.0688 µM in assay [4]; 0.0604 µM in assay [5]; 0.134 µM in [6]. Also, the GI50 in assay [7] is 0.0933 µM; in assay [10], 0.0596 µM; in assay [8] it was 0.0708 µM. Moreover, the TGI amounted to 0.468 µM in [2]; 0.117 µM in [9]; 0.413 µM in assay [3]; 0.165 µM in assay [4]; 0.152 µM in assay [5]; 0.583 µM in [6]. The TGI in [7] was found to be 0.219 µM; in assay [10] it was 0.131 µM; in [8], 0.182 µM.
As for `O=C1/C(=C\c2ccc(F)cc2)CN(C(=O)c2ccccc2)C/C1=C\c1ccc(F)cc1`, the GI50 in [1] was 0.484 µM; in [9], 1.41 µM; in assay [4] it was 0.428 µM; in assay [5] it was 1.84 µM; in [6] it was 2.4 µM; in assay [7], 2.56 µM. Also, in assay [8], the GI50 was 2.56 µM. The TGI in [1] turned out to be 26.8 µM; in assay [9], 3.18 µM; in assay [4], 1.71 µM; in [5] it was 4.83 µM; in assay [6] it was 10.6 µM; in [7], 72.5 µM. Also, the TGI in assay [8] amounted to 7.58 µM.
Regarding `COC1C(CO)OC(n2c3ccccc3c3c4c(c5c6ccccc6[nH]c5c32)C(=O)NC4=O)C(O)C1O` (stereo not given), the GI50 in assay [2] is 0.326 µM; in assay [9] it was less than 0.01 µM; in [3], 0.0176 µM; in [4], 0.016 µM; in [5] it was 0.0169 µM; in assay [6], 0.173 µM. Further, the GI50 in [7] is 0.0202 µM; in [10] it was 0.016 µM; in assay [8], less than 0.01 µM. Moreover, the TGI came to 2.34 µM in assay [2]; 0.0352 µM in assay [9]; 0.55 µM in [3]; 0.146 µM in assay [4]; 0.0902 µM in assay [5]; 0.676 µM in assay [6]. The figures for the TGI in assay [10] and in assay [8] were 0.0998 µM and 0.0359 µM, respectively.
Turning to `C[C@]12CCc3nc(Nc4cccc(O)c4)sc3C1=CC[C@@H]1[C@@H]2CC[C@]2(C)/C(=N\NC(N)=S)CC[C@@H]12`, the GI50 in assay [2] is 2.74 µM; in [9], 1.52 µM; in [4] it was 1.34 µM; in assay [5], 2.01 µM; in assay [6], 1.4 µM; in assay [7] it was 0.765 µM. Also, the GI50 was 3.01 µM in [10] and 0.464 µM in assay [8]. Besides, the TGI in assay [2] came to 9.26 µM; in assay [9], 2.85 µM; in [4], 2.69 µM; in [5] it was 4.46 µM; in assay [6], 2.83 µM; in assay [7], 6.9 µM. In addition, the figures for the TGI in [10] and in [8] were 15.5 µM and 1.84 µM, respectively.
With `COC(=O)C1=Cc2cc(OC)c(OC)c(OC)c2[C@H](c2cc(OC)c(OC)c(OC)c2)C1C(=O)OC` (stereo not given in full), the TGI in assay [2], in [9], in [3], in assay [4], in [5] and in [6] was more than 100 µM each time. Also, the TGI in assay [7], in assay [10] and in assay [8] was more than 100 µM in each case.
As for `C=C=C(C(=O)OC)S(=O)c1ccccc1[N+](=O)[O-]` (stereo not given), the TGI in assay [2], in assay [3], in assay [4], in assay [5], in assay [6] and in assay [7] was more than 100 µM each time. Also, the TGI in assay [10] and in assay [8] was more than 100 µM throughout.
Take `O=S(=O)([O-])c1ccc(N=Cc2ccccc2[O-])cc1.O=S(=O)([O-])c1ccc(N=Cc2ccccc2[O-])cc1.[O]=[U+2]=[O]`: the GI50 in [2] is more than 100 µM; in [9] it was more than 100 µM; in assay [4], 20 µM; in assay [5], more than 100 µM; in [6], more than 100 µM; in assay [7] it was 64.1 µM. Besides, the results for the GI50 in assay [10] and in assay [8] were more than 100 µM and 54.7 µM, respectively. Besides, the TGI in assay [2], in assay [9], in [4], in assay [5], in assay [6] and in assay [7] was more than 100 µM throughout. The TGI in [10] and in [8] was more than 100 µM throughout.
Consider `CN1C(=O)CCC2[C@@H]3CC=C4C[C@@H](O)CC[C@]4(C)C3CC[C@@]21C` (stereo not given in full), for which the TGI in assay [2] was more than 100 µM; in assay [3], more than 100 µM; in assay [4], more than 100 µM; in [5] it was more than 100 µM; in [6], more than 100 µM; in assay [7], 69.6 µM. The TGI in assay [10] and in [8] was more than 100 µM throughout.
As for `C=C1CC2CCCC12C=O` (stereo not given), the TGI in assay [1], in assay [9], in [3], in assay [4], in assay [5] and in [7] was more than 10 µM throughout. In assay [8], the TGI is more than 10 µM.

(Values after PubChem BioAssay (NCI).)
